Experimental data as given in ChEMBL document CHEMBL1201862, “PubChem BioAssay data set” (2004).
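Dose response: 5 concentrations. Exposure: 48 h. Format: 96-well plates. Endpoint: linear interpolation; highest concentration if not reached. At the GI50, growth is halved.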 Calls of active or inactive are those of the source. Rule as the data show it: active = GI50 up to about 1.1 µM and inactive = higher.

Columns and labels:
Assay in all cases: NCI anticancer screen, dose series, 48 h
CAKI-1 = system: CAKI-1
ACHN = system: ACHN
IGROV-1 = system: IGROV-1
HCT-116 = system: HCT-116
UO-31 = system: UO-31
TK-10 = system: TK-10
Malme-3M = system: Malme-3M
A549 = system: A549
K562 = system: K562
HCT-15 = system: HCT-15
NCI-H460 = system: NCI-H460
OVCAR-5 = system: OVCAR-5
OVCAR-8 = system: OVCAR-8
HL-60 = system: HL-60
SNB-78 = system: SNB-78
LOX IMVI = system: LOX IMVI
KM12 = system: KM12
M14 = system: M14
SN12C = system: SN12C
MOLT-4 = system: MOLT-4
RXF 393 = system: RXF 393
HOP-18 = system: HOP-18
DMS-114 = system: DMS-114
LXFL 529 = system: LXFL 529
SR = system: SR
XF498 = system: XF498
SK-MEL-28 = system: SK-MEL-28
CCRF-CEM = system: CCRF-CEM
SW-620 = system: SW-620
SF-295 = system: SF-295
RXF 631 = system: RXF 631
EKVX = system: EKVX
SF-539 = system: SF-539
KM-20L2 = system: KM-20L2
M19-MEL = system: M19-MEL
HT-29 = system: HT-29
OVCAR-4 = system: OVCAR-4
HOP-62 = system: HOP-62
SNB-19 = system: SNB-19
DMS-273 = system: DMS-273
SK-MEL-5 = system: SK-MEL-5
UACC-257 = system: UACC-257
NCI-H226 = system: NCI-H226
RPMI-8226 = system: RPMI-8226
786-0 = system: 786-0
SF-268 = system: SF-268
NCI-H522 = system: NCI-H522
U-251 = system: U-251
UACC-62 = system: UACC-62
A498 = system: A498
SK-OV-3 = system: SK-OV-3
SNB-75 = system: SNB-75
NCI-H23 = system: NCI-H23
SK-MEL-2 = system: SK-MEL-2
HOP-92 = system: HOP-92
DLD-1 = system: DLD-1
HCC 2998 = system: HCC 2998

CN(C)C1=NC2=S(SC(Nc3ccccc3)=N2)S1 (configuration not stated)
GI50 (CAKI-1): 26.5 µM (inactive) | GI50 (ACHN): 11.9 µM (inactive) | GI50 (IGROV-1): 15.7 µM (inactive) | GI50 (HCT-116): 10.5 µM (inactive) | GI50 (UO-31): 24 µM (inactive) | GI50 (TK-10): 27.9 µM (inactive) | GI50 (Malme-3M): 16.1 µM (inactive) | GI50 (A549): 7.85 µM (inactive) | GI50 (K562): 6.62 µM (inactive) | GI50 (HCT-15): 11.9 µM | GI50 (NCI-H460): 36.1 µM (inactive) | GI50 (OVCAR-5): 34.8 µM (inactive) | GI50 (OVCAR-8): 26.6 µM (inactive) | GI50 (HL-60): 10 µM (inactive) | GI50 (SNB-78): 34.4 µM (inactive) | GI50 (LOX IMVI): 22.7 µM (inactive) | GI50 (KM12): 26.4 µM (inactive) | GI50 (M14): 58.1 µM (inactive) | GI50 (SN12C): 31.3 µM (inactive) | GI50 (MOLT-4): 10.3 µM (inactive) | GI50 (RXF 393): 32 µM (inactive) | GI50 (HOP-18): 25 µM (inactive) | GI50 (DMS-114): 3.47 µM (inactive) | GI50 (LXFL 529): 10 µM (inactive) | GI50 (SR): 17.1 µM (inactive) | GI50 (XF498): 14 µM (inactive) | GI50 (SK-MEL-28): 17.2 µM (inactive) | GI50 (CCRF-CEM): 15.5 µM (inactive) | GI50 (SW-620): 46.5 µM (inactive) | GI50 (SF-295): 24.5 µM (inactive) | GI50 (RXF 631): > 100 µM (inactive) | GI50 (EKVX): 12.9 µM (inactive) | GI50 (SF-539): 20.2 µM (inactive) | GI50 (KM-20L2): 32.9 µM (inactive) | GI50 (M19-MEL): 30 µM (inactive) | GI50 (HT-29): 33.6 µM (inactive) | GI50 (OVCAR-4): 19 µM (inactive) | GI50 (HOP-62): 24.2 µM (inactive) | GI50 (SNB-19): 26.3 µM (inactive) | GI50 (DMS-273): 14.8 µM (inactive) | GI50 (SK-MEL-5): 5.87 µM (inactive) | GI50 (UACC-257): 7.8 µM (inactive) | GI50 (NCI-H226): 22.2 µM (inactive) | GI50 (RPMI-8226): 9.33 µM (inactive) | GI50 (786-0): 28.8 µM (inactive) | GI50 (SF-268): 34.5 µM (inactive) | GI50 (NCI-H522): 10.3 µM (inactive) | GI50 (U-251): 19.4 µM (inactive) | GI50 (UACC-62): 21.2 µM (inactive) | GI50 (A498): 14.6 µM (inactive) | GI50 (SK-OV-3): 46.9 µM (inactive) | GI50 (SNB-75): 28.7 µM (inactive) | GI50 (NCI-H23): 28.2 µM (inactive) | GI50 (SK-MEL-2): 7.62 µM (inactive) | GI50 (HOP-92): 22.7 µM (inactive) | GI50 (DLD-1): 27.2 µM (inactive) | GI50 (HCC 2998): 21 µM (inactive)
